For 25 molecules, IC50 results are on record in US11827657B2, “Boron containing pyrazole compounds, compositions comprising them, methods and uses thereof” (BOEHRINGER INGELHEIM ANIMAL HEALTH USA INC., priority 2020, dated 2023).

Bounds are passed on as bounds.

Chain of JAK1 (P23458 whole entry, species assumed): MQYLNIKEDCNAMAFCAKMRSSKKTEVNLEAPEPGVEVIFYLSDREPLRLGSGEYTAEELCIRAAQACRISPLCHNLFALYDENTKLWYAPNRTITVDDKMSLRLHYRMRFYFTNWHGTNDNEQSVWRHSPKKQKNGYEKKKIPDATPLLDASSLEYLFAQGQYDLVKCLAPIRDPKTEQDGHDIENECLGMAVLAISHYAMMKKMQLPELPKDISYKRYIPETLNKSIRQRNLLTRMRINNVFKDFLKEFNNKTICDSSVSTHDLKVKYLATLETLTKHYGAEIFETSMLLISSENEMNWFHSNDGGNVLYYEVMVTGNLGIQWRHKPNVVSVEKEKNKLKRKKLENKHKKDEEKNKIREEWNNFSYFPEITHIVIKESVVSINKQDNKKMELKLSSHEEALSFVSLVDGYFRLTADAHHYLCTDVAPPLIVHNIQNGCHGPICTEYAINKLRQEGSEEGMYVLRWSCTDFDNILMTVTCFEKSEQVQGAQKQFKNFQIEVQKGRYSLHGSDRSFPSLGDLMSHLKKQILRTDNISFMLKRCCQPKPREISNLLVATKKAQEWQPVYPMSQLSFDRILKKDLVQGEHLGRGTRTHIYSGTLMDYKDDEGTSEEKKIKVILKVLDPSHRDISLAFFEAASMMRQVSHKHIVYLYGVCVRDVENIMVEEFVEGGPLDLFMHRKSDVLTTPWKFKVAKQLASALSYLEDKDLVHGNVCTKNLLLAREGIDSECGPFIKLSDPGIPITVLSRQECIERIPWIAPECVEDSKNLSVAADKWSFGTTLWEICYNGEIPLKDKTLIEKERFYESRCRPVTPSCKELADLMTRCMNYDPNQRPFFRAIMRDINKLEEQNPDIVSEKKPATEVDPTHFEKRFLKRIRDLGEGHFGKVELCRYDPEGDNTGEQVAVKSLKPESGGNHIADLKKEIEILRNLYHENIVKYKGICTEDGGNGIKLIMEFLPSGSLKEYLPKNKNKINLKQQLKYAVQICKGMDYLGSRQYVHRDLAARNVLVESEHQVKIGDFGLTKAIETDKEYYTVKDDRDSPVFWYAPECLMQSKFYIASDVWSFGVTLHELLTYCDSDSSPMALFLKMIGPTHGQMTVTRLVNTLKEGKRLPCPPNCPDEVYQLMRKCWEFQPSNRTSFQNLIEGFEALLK

For this assay, the target named is JAK1 (Homo sapiens, UniProt P23458). Briefly: Biochemical Kinase Assay (JAK), 33P-ATP filter-binding. The conditions noted are these: Biochemical Kinase Inhibition Assay; potency level of IC50; read-out: JAK1 (range). The protocol:
Biochemical Kinase Assay Protocol (JAK) • Reagent: Base Reaction buffer; 20 mM Hepes (pH 7.5), 10 mM MgCl2, 1 mM EGTA, 0.02% Brij™ 35, 0.02 mg/ml BSA, 0.1 mM Na3VO4, 2 mM DTT, 1% DMSO, where required cofactors were added individually to each kinase reaction.
Reaction Procedure: • 1. Prepared indicated substrate in freshly prepared Base Reaction Buffer • 2. Delivered any required cofactors to the substrate solution above • 3. Delivered indicated kinase into the substrate solution and gently mix • 4. Delivered compounds in DMSO into the kinase reaction mixture by Acoustic technology (Echo550; nanoliter range), incubated for 20 minutes at room temperature • 5. Delivered 33P-ATP into the reaction mixture to initiate the reaction. • 6. Incubated kinase reaction for 2 hours at room temperature • 7. Reactions were spotted onto P81 ion exchange paper • 8. Detected kinase activity by filter-binding method.
Compounds according to the present invention were tested in the Biochemical Kinase Assay Protocol. The results are provided below in Table 1, wherein the potency levels A, B, and C in the columns labeled JAK1 (range) correspond to IC50 as follows: A<10 nM; B=10-50 nM and C>50 nM. The Example Number entries formatted ##a represent stereoisomer one and entries formatted ##b represent stereoisomer two.
Turning to `CC1(C)OB(O)c2cc(Nc3nn([C@@H]4COCC[C@H]4C#N)cc3C(N)=O)ccc21` (single isomer, unassigned) [Example 36a, 1-[trans-4-cyanotetrahydro-2H-pyran-3-yl]-3-[(1-hydroxy-3,3-dimethyl-2,1-benzoxaborol-6-yl)amino]pyrazole-4-carboxamide], the IC50 was below 10 nM.

As for `CC1(C)OB(O)c2cc(Nc3nn([C@@H]4COCC[C@H]4C#N)cc3C(N)=O)ccc21` (single isomer, unassigned) [Example 36b, 1-[trans-4-cyanotetrahydro-2H-pyran-3-yl]-3-[(1-hydroxy-3,3-dimethyl-2,1-benzoxaborol-6-yl)amino]pyrazole-4-carboxamide], the IC50 is below 10 nM.

As to `N#C[C@@H]1CCOC[C@H]1n1cc(C(N)=O)c(Nc2cc(F)c3c(c2)COB3O)n1` (single isomer, unassigned) [Example 38a, 1-[trans-4-cyanotetrahydro-2H-pyran-3-yl]-3-[(7-fluoro-1-hydroxy-3H-2,1-benzoxaborol-5-yl)amino]pyrazole-4-carboxamide], the IC50 was 10 to 50 nM.

Take `N#C[C@@H]1CCOC[C@H]1n1cc(C(N)=O)c(Nc2cc(F)c3c(c2)COB3O)n1` (single isomer, unassigned) [Example 38b, 1-[trans-4-cyanotetrahydropyran-3-yl]-3-[(7-fluoro-1-hydroxy-3H-2,1-benzoxaborol-5-yl)amino]pyrazole-4-carboxamide]: the IC50 was below 10 nM.

`N#C[C@@H]1CCOC[C@H]1n1cc(C(N)=O)c(Nc2ccc3c(c2)COB3O)n1` (single isomer, unassigned) [Example 41a, 1-(trans-4-cyanotetrahydro-2H-pyran-3-yl)-3-((1-hydroxy-1,3-dihydrobenzo[c][1,2]oxaborol-5-yl)amino)-1H-pyrazole-4-carboxamide]: the IC50 is below 10 nM.

For the molecule `N#C[C@@H]1CCOC[C@H]1n1cc(C(N)=O)c(Nc2ccc3c(c2)COB3O)n1` (single isomer, unassigned) [Example 41b, 1-(trans-4-cyanotetrahydro-2H-pyran-3-yl)-3-((1-hydroxy-1,3-dihydrobenzo[c][1,2]oxaborol-5-yl)amino)-1H-pyrazole-4-carboxamide], the IC50 was below 10 nM.

For the molecule `N#C[C@@H]1CCOC[C@H]1n1cc(C(N)=O)c(Nc2ccc3c(c2)B(O)OCC3)n1` (single isomer, unassigned) [Example 42a, 1-[trans-4-cyanotetrahydro-2H-pyran-3-yl]-3-[(1-hydroxy-3,4-dihydro-2,1-benzoxaborinin-7-yl)amino]pyrazole-4-carboxamide], the IC50 was below 10 nM.

With `N#C[C@@H]1CCOC[C@H]1n1cc(C(N)=O)c(Nc2ccc3c(c2)B(O)OCC3)n1` (single isomer, unassigned) [Example 42b, 1-[trans-4-cyanotetrahydro-2H-pyran-3-yl]-3-[(1-hydroxy-3,4-dihydro-2,1-benzoxaborinin-7-yl)amino]pyrazole-4-carboxamide], the IC50 was below 10 nM.

For `N#C[C@@H]1CCOC[C@H]1n1cc(C(N)=O)c(Nc2ccc3c(c2)C(Cl)=CB(O)O3)n1` (single isomer, unassigned) [Example 43a, 3-[(4-chloro-2-hydroxy-1,2-benzoxaborinin-6-yl)amino]-1-[trans-4-cyanotetrahydro-2H-pyran-3-yl]pyrazole-4-carboxamide], the IC50 is below 10 nM.

Consider `N#C[C@@H]1CCOC[C@H]1n1cc(C(N)=O)c(Nc2ccc3c(c2)C(Cl)=CB(O)O3)n1` (single isomer, unassigned) [Example 43b, 3-[(4-chloro-2-hydroxy-1,2-benzoxaborinin-6-yl)amino]-1-[trans-4-cyanotetrahydro-2H-pyran-3-yl]pyrazole-4-carboxamide], for which the IC50 was below 10 nM.

For `N#C[C@@H]1CCOC[C@H]1n1cc(C(N)=O)c(Nc2cc(F)c3c(c2)C=CB(O)O3)n1` (single isomer, unassigned) [Example 44a, 1-[trans-4-cyanotetrahydro-2H-pyran-3-yl]-3-[(8-fluoro-2-hydroxy-1,2-benzoxaborinin-6-yl)amino]pyrazole-4-carboxamide], the IC50 is below 10 nM.

On to `N#C[C@@H]1CCOC[C@H]1n1cc(C(N)=O)c(Nc2cc(F)c3c(c2)C=CB(O)O3)n1` (single isomer, unassigned) [Example 44b, 1-[trans-4-cyanotetrahydro-2H-pyran-3-yl]-3-[(8-fluoro-2-hydroxy-1,2-benzoxaborinin-6-yl)amino]pyrazole-4-carboxamide], for which the IC50 was below 10 nM.

Take `CC1=Cc2cc(Nc3nn([C@@H]4CCC[C@H]4C#N)cc3C(N)=O)cc(F)c2OB1O` (single isomer, unassigned) [Example 45a, 1-[trans-2-cyanocyclopentyl]-3-[(8-fluoro-2-hydroxy-3-methyl-1,2-benzoxaborinin-6-yl)amino]pyrazole-4-carboxamide]: the IC50 is below 10 nM.

As for `Cc1cc2c(cc1Nc1nn([C@@H]3COCC[C@H]3C#N)cc1C(N)=O)C=CB(O)O2` (single isomer, unassigned) [Example 46a, 1-(trans-4-cyanotetrahydro-2H-pyran-3-yl)-3-((2-hydroxy-7-methyl-2H-benzo[e][1,2]oxaborinin-6-yl)amino)-1H-pyrazole-4-carboxamide], the IC50 is above 50 nM.

Turning to `Cc1cc2c(cc1Nc1nn([C@@H]3COCC[C@H]3C#N)cc1C(N)=O)C=CB(O)O2` (single isomer, unassigned) [Example 46b, 1-(trans-4-cyanotetrahydro-2H-pyran-3-yl)-3-((2-hydroxy-7-methyl-2H-benzo[e][1,2]oxaborinin-6-yl)amino)-1H-pyrazole-4-carboxamide], the IC50 is above 50 nM.

As to `CC1=CB(O)Oc2c(C)cc(Nc3nn([C@@H]4COCC[C@H]4C#N)cc3C(N)=O)cc21` (single isomer, unassigned) [Example 47a, 1-[trans-4-cyanotetrahydro-2H-pyran-3-yl]-3-[(2-hydroxy-4,8-dimethyl-1,2-benzoxaborinin-6-yl)amino]pyrazole-4-carboxamide], the IC50 is below 10 nM.

Take `CC1=CB(O)Oc2c(C)cc(Nc3nn([C@@H]4COCC[C@H]4C#N)cc3C(N)=O)cc21` (single isomer, unassigned) [Example 47b, 1-[trans-4-cyanotetrahydro-2H-pyran-3-yl]-3-[(2-hydroxy-4,8-dimethyl-1,2-benzoxaborinin-6-yl)amino]pyrazole-4-carboxamide]: the IC50 was below 10 nM.

Take `CC(C)C1=Cc2cc(Nc3nn([C@@H]4COCC[C@H]4C#N)cc3C(N)=O)ccc2OB1O` (single isomer, unassigned) [Example 48a, 1-(trans-4-cyanotetrahydro-2H-pyran-3-yl)-3-((2-hydroxy-3-isopropyl-2H-benzo[e][1,2]oxaborinin-6-yl)amino)-1H-pyrazole-4-carboxamide]: the IC50 was below 10 nM.

For `CC(C)C1=Cc2cc(Nc3nn([C@@H]4COCC[C@H]4C#N)cc3C(N)=O)ccc2OB1O` (single isomer, unassigned) [Example 48b, 1-(trans-4-cyanotetrahydro-2H-pyran-3-yl)-3-((2-hydroxy-3-isopropyl-2H-benzo[e][1,2]oxaborinin-6-yl)amino)-1H-pyrazole-4-carboxamide], the IC50 was below 10 nM.

`N#C[C@@H]1CCOC[C@H]1n1cc(C(N)=O)c(Nc2ccc3c(c2)C=CB(O)O3)n1` (single isomer, unassigned) [Example 51a, 1-[trans-4-cyanotetrahydro-2H-pyran-3-yl]-3-[(2-hydroxy-1,2-benzoxaborinin-6-yl)amino]pyrazole-4-carboxamide]: the IC50 is below 10 nM.

`N#C[C@@H]1CCOC[C@H]1n1cc(C(N)=O)c(Nc2ccc3c(c2)C=CB(O)O3)n1` (single isomer, unassigned) [Example 51b, 1-[trans-4-cyanotetrahydro-2H-pyran-3-yl]-3-[(2-hydroxy-1,2-benzoxaborinin-6-yl)amino]pyrazole-4-carboxamide]: the IC50 was below 10 nM.

Take `N#C[C@@H]1CCOC[C@H]1n1cc(C(N)=O)c(Nc2cc(Cl)c3c(c2)COB3O)n1` (single isomer, unassigned) [Example 52a, 3-((7-chloro-1-hydroxy-1,3-dihydrobenzo[c][1,2]oxaborol-5-yl)amino)-1-(trans-4-cyanotetrahydro-2H-pyran-3-yl)-1H-pyrazole-4-carboxamide]: the IC50 was below 10 nM.

For the molecule `N#C[C@@H]1CCOC[C@H]1n1cc(C(N)=O)c(Nc2cc(Cl)c3c(c2)COB3O)n1` (single isomer, unassigned) [Example 52b, 3-((7-chloro-1-hydroxy-1,3-dihydrobenzo[c][1,2]oxaborol-5-yl)amino)-1-(trans-4-cyanotetrahydro-2H-pyran-3-yl)-1H-pyrazole-4-carboxamide], the IC50 was below 10 nM.

Turning to `N#C[C@@H]1CCOC[C@H]1n1cc(C(N)=O)c(Nc2cc3c(c(OC(F)(F)F)c2)OB(O)C=C3)n1` (single isomer, unassigned) [Example 53a, 1-[trans-4-cyanotetrahydro-2H-pyran-3-yl]-3-[[2-hydroxy-8-(trifluoromethoxy)-1,2-benzoxaborinin-6-yl]amino]pyrazole-4-carboxamide], the IC50 is above 50 nM.

In the case of `N#C[C@@H]1CCOC[C@H]1n1cc(C(N)=O)c(Nc2cc3c(c(OC(F)(F)F)c2)OB(O)C=C3)n1` (single isomer, unassigned) [Example 53b, 1-[trans-4-cyanotetrahydro-2H-pyran-3-yl]-3-[[2-hydroxy-8-(trifluoromethoxy)-1,2-benzoxaborinin-6-yl]amino]pyrazole-4-carboxamide], the IC50 was below 10 nM.
